Data reported in article PMC7700809 (Molecular Biomedicine, 2020).
Where two headings read alike, the source gives them in different places.

Legend:
in vivo [1] = conditions: Sprague-Dawley, rat, lung, po
Protocol: (§3) The male mice (20–25 g) and Sprague-Dawley rats (180–220 g) were provided by Laboratory Animal Center of Anhui Medical University (Hefei, China), and the beagle dogs were obtained from Nanjing Bosgene Biotech Co., Ltd. All the animals were housed under control conditions (temperature 23 ± 2 °C, humidity 50% ± 5%, 12 h dark/light cycle) with standardized diet and acclimatized for 7 days, prior to the experiments.
(§4) Seventy-two mice or rats were randomly and equally divided into two groups. […] Tissues (liver, lung, and kidney) were promptly harvested at 1, 2, 4, 6, 9, 12, 24, 48, 72, and 144 h. Each tissue sample was homogenized (Tissue sample:saline ratio of 1:5, w/v). Tissue samples were stored at − 80 °C until further analysis. The preparation process for analysis was the same as described above for plasma.
(§5) The LC-MS/MS system consisted of a SHIMADZU LC-30 AD series HPLC system (Shimadzu, Kyoto, Japan) and API4000 triple quadrupole mass spectrometer (Applied Biosystems Sciex, Ont., Canada) with electrospray ionization (ESI) source. Separation was carried out on a C18 column (2.1 × 100 mm, 5 μm, Hanbon, Jiangsu, China) kept at 40 °C. The mobile phase consisted of water (containing 0.1% formic acid, mobile phase A) and methanol (mobile phase B) with rate set at 0.3 mL/min. The optimal gradient elution curve included 0–1.0 min, 10% B; a linear increase to 90% a within 0.5 min; 90% B for 3.5 min; a linear decrease to 10% B within 0.5 min. 10% B for 1.5 min; 7.00 min, stop.
(§6) LC-MS/MS was performed in the positive and multiple reaction monitoring (MRM) mode.

TNF-α = TNF-α protein level in M1 polarized THP-1 macrophages (ELISA); type: cell-based, Human; conditions: 0.1 μM, 36 h
Protocol: (§1) Results are expressed as means ±S.D. (n = 3).
(§2) Human monocytic THP-1 cells were maintained in RPMI 1640 medium (Corning, USA) supplemented with 2% L-glutamine,10% fetal bovine serum (FBS), 1% penicillin/ streptomycin and […] ß-mercaptoethanol. THP-1 monocytes are differentiated into macrophages by 24 h incubation with 150 nM phorbol 12-myristate 13-acetate (PMA, Sigma, P8139) followed by 24 h incubation in RPMI medium. Macrophages were polarized in M1 macrophages by incubation with 20 ng/ml of IFN-γ (R&D system, #285-IF) and 100 ng/ml of LPS (Sigma, #8630). […] Cytokine secretion in the culture medium was assayed using an ELISA kit according to the procedure recommended by the supplier (IL-6 (MultiSciences, 70-EK106/2–96), TNFα (MultiSciences,70-EK182HS-96)).

[2] = test system: SARS-CoV-2 specific nucleocapsid; test: Western blot analysis of nucleocapsid level in Vero cells; type: cell-based
[3] = mice
in vitro = conditions: African green monkey
SARS-CoV-2 = test: microbe, parasite or virus in culture; type: cell-based; conditions: Severe acute respiratory syndrome coronavirus 2, Vero; read-out: EC50 antiviral replication effect
[4] = In vivo plasma pharmacokinetics in beagle dogs; conditions: Dog; for MRT last: read-out: MRT0-t; for MRT inf: read-out: MRT0-∞
Protocol: After dosage, blood samples were collected into heparinized tubes at 2, 5, 15, 30, 60, 120, 240, 360, 540, and 720 min for the i.v. group, and at 5, 15, 30, 60, 90, 120, 240, 360, 540, 720 and 1440 min for the i.g. group. Plasma (100 μL) was isolated from the blood sample by centrifuging at 4 °C and 6000 rpm for 3 min and then stored at − 80 °C until analysis. An aliquot of 100 μL of each plasma sample was mixed with 20 μL of internal standard working solution (200 ng/mL of caffeine). Methanol (400 μL) was then added for precipitation. After vortexing for 5 min and centrifuging at 14000 rpm for 10 min, 5 μL of the supernatant was injected for LC-MS/MS analysis.
The PK parameters were analyzed through the noncompartment model using WinNonlin 6.1 software (Pharsight Corporation, Mountain View, USA), including half-life (T1/2), the peak of the plasma concentration (Cmax), the time to peak of the plasma concentration (Tmax), the area under the plasma concentration-time curve during the period of observation (AUC0-t), the area under the plasma concentration-time curve from zero to infinity (AUC0-∞), clearance (CL), apparent volume of distribution (Vd), and the mean residence time.

IL-6 = test: LPS induced IL-6 protein level in M1 polarized THP-1 macrophages (ELISA); type: cell-based, Human; conditions: 0.01 μM, 36 h
Protocol: as §1, §2

in vivo [5] = conditions: male, mouse, lung, po
Protocol: as §3, §4, §5, §6

CC[C@H]1CN2CCc3cc(OC)c(OC)cc3[C@@H]2C[C@@H]1C[C@H]1NCCc2cc(OC)c(OC)cc21 [Emetine]
Tmax (in vivo [1]; 1 mg/kg): 12 h | concentration at 12 h (in vivo [1]; 1 mg/kg): 1610 nM | concentration at 72 h (in vivo [1]; 1 mg/kg): 360 nM | concentration at 1 h (in vivo [1]; 1 mg/kg/day): 5000 to 6000 nM | concentration at 72 h (in vivo [1]; 1 mg/kg/day): 4890 nM | TNF-α expression (TNF-α): moderate effect | SARS-CoV-2 specific nucleocapsid level, anti-replication effect ([2]; Vero cells infected […], then drug 24 h): dose-dependently decreased | SARS-CoV-2 specific nucleocapsid level, anti-entry effect ([2]; Vero cells pretreated with drug […], virus […], 24 h): confirmed this trend | Lung concentration ([3]; 1 mg/kg I.V. (12 h value of Table s2)): 3.8 µM | Kidney concentration ([3]; I.V. 1 mg/kg, 0.033 h): 8.52 ± 1.25 µM | Liver concentration ([3]; I.V. 1 mg/kg, 0.033 h): 4.11 ± 1.25 µM | Plasma concentration ([3]; I.V. 1 mg/kg, 0.033 h): 150 ± 60 nM | Kidney concentration ([3]; I.V. 1 mg/kg, 0.083 h): 8.04 ± 0.57 µM | Liver concentration ([3]; I.V. 1 mg/kg, 0.083 h): 3.05 ± 0.23 µM | Lung concentration ([3]; I.V. 1 mg/kg, 0.083 h): 16.5 ± 1.59 µM | Plasma concentration ([3]; I.V. 1 mg/kg, 0.083 h): 110 ± 20 nM | Kidney concentration ([3]; I.V. 1 mg/kg, 0.5 h): 9.48 ± 1.10 µM | Liver concentration ([3]; I.V. 1 mg/kg, 0.5 h): 5.01 ± 1.13 µM | Lung concentration ([3]; I.V. 1 mg/kg, 0.5 h): 10.3 ± 1.45 µM | Plasma concentration ([3]; I.V. 1 mg/kg, 0.5 h): 40 ± 20 nM | Kidney concentration ([3]; I.V. 1 mg/kg, 1 h): 9.24 ± 0.44 µM | Liver concentration ([3]; I.V. 1 mg/kg, 1 h): 4.78 ± 0.43 µM | Lung concentration ([3]; I.V. 1 mg/kg, 1 h): 7.73 ± 1.22 µM | Plasma concentration ([3]; I.V. 1 mg/kg, 1 h): 30 ± 6 nM | Kidney concentration ([3]; I.V. 1 mg/kg, 2 h): 9.04 ± 0.15 µM | Liver concentration ([3]; I.V. 1 mg/kg, 2 h): 6.12 ± 1.37 µM | Lung concentration ([3]; I.V. 1 mg/kg, 2 h): 7.12 ± 2.30 µM | Plasma concentration ([3]; I.V. 1 mg/kg, 2 h): 12 ± 3 nM | Kidney concentration ([3]; I.V. 1 mg/kg, 4 h): 6.16 ± 0.77 µM | Liver concentration ([3]; I.V. 1 mg/kg, 4 h): 6.46 ± 0.57 µM | Lung concentration ([3]; I.V. 1 mg/kg, 4 h): 5.85 ± 1.20 µM | Plasma concentration ([3]; I.V. 1 mg/kg, 4 h): 7 ± 1 nM | Liver concentration ([3]; I.V. 1 mg/kg, 6 h): 6.87 ± 0.65 µM | Lung concentration ([3]; I.V. 1 mg/kg, 6 h): 5.42 ± 0.13 µM | Plasma concentration ([3]; I.V. 1 mg/kg, 6 h): 9 ± 4 nM | Kidney concentration ([3]; I.V. 1 mg/kg, 9 h): 5.96 ± 0.76 µM | Liver concentration ([3]; I.V. 1 mg/kg, 9 h): 9.22 ± 0.81 µM | Lung concentration ([3]; I.V. 1 mg/kg, 9 h): 5.63 ± 1.00 µM | Plasma concentration ([3]; I.V. 1 mg/kg, 9 h): 8 ± 4 nM | Kidney concentration ([3]; I.V. 1 mg/kg, 12 h): 4.29 ± 0.79 µM | Liver concentration ([3]; I.V. 1 mg/kg, 12 h): 8.17 ± 1.46 µM | Lung concentration ([3]; I.V. 1 mg/kg, 12 h): 3.77 ± 0.96 µM | Plasma concentration ([3]; I.V. 1 mg/kg, 12 h): 7 ± 5 nM | Kidney concentration ([3]; I.V. 1 mg/kg, 48 h): 0.879 ± 0.278 µM | Liver concentration ([3]; I.V. 1 mg/kg, 48 h): 1.67 ± 0.872 µM | Lung concentration ([3]; I.V. 1 mg/kg, 48 h): 1.67 ± 0.28 µM | Liver concentration ([3]; I.V. 1 mg/kg, 72 h): 0.620 ± 0.024 µM | Lung concentration ([3]; I.V. 1 mg/kg, 72 h): 0.852 ± 0.075 µM | Kidney concentration ([3]; I.V. 1 mg/kg, 144 h): 0.174 ± 0.018 µM | Liver concentration ([3]; I.V. 1 mg/kg, 144 h): 0.129 ± 0.041 µM | Lung concentration ([3]; I.V. 1 mg/kg, 144 h): 0.263 ± 0.034 µM | AUMC0-t ([3]; I.V. 1 mg/kg, Kidney): 193,238 hr*hr.*ng/mL | AUMC0-∞ ([3]; I.V. 1 mg/kg, Kidney): 2,810,677 hr*hr.*ng/mL | AUMC0-t ([3]; I.V. 1 mg/kg, Liver): 275,511 hr*hr.*ng/mL | AUMC0-∞ ([3]; I.V. 1 mg/kg, Liver): 3,897,180 hr*hr.*ng/mL | AUMC0-t ([3]; I.V. 1 mg/kg, Lung): 181,502 hr*hr.*ng/mL | AUMC0-∞ ([3]; I.V. 1 mg/kg, Lung): 1,038,814 hr*hr.*ng/mL | CC50 (in vitro): 1960 nM | EC50 (SARS-CoV-2): 7 nM | AUMC0-t ([4]; I.V. 1 mg/kg): 1331 ± 695 hr*hr.*ng/mL | AUMC0-∞ ([4]; I.V. 1 mg/kg): 1626 ± 679 hr*hr.*ng/mL | AUMC0-t ([4]; P.O. 5 mg/kg): 12,464 ± 9313 hr*hr.*ng/mL | AUMC0-∞ ([4]; P.O. 5 mg/kg): 19,162 ± 13,435 hr*hr.*ng/mL | Cl ([4]; P.O. 5 mg/kg): 72.95 ± 62.47 mL/min/kg | Vz ([4]; P.O. 5 mg/kg): 51,033 ± 45,021 mL/kg | AUC(0-inf) ([4]; beagle, iv, I.V. 1 mg/kg): 468 ± 298 ng·h/mL | AUC(0-t) ([4]; beagle, iv, I.V. 1 mg/kg): 449 ± 298 ng·h/mL | C0 ([4]; beagle, iv, I.V. 1 mg/kg): 351 ± 44 ng/mL | Cmax ([4]; beagle, iv, I.V. 1 mg/kg): 260 ± 66.7 ng/mL | Tmax ([4]; beagle, iv, I.V. 1 mg/kg): 0.03 h | clearance ([4]; beagle, iv, I.V. 1 mg/kg): 45.8 mL/min/kg | half-life ([4]; beagle, iv, I.V. 1 mg/kg): 2.45 ± 0.91 h | MRT last ([4]; beagle, iv, I.V. 1 mg/kg): 3.2 ± 0.78 h | MRT inf ([4]; beagle, iv, I.V. 1 mg/kg): 3.82 ± 0.86 h | Vd ([4]; beagle, iv, I.V. 1 mg/kg, read-out: Vz): 9.55 ± 5.26 L/kg | AUC(0-inf) ([4]; beagle, po, P.O. 5 mg/kg): 1740 ± 1080 ng·h/mL | AUC(0-t) ([4]; beagle, po, P.O. 5 mg/kg): 1550 ± 964 ng·h/mL | Cmax ([4]; beagle, po, P.O. 5 mg/kg): 245 ± 164 ng/mL | Tmax ([4]; beagle, po, P.O. 5 mg/kg): 0.25 h | half-life ([4]; beagle, po, P.O. 5 mg/kg): 7.99 ± 0.35 h | bioavailability ([4]; beagle, po, P.O. 5 mg/kg vs I.V. 1 mg/kg, read-out: F (oral bioavailability)): 74.2 ± 46.2% | MRT last ([4]; beagle, po, P.O. 5 mg/kg): 7.63 ± 1.32 h | MRT inf ([4]; beagle, po, P.O. 5 mg/kg): 10.7 ± 1.21 h | LPS induced IL-6 expression level (IL-6): significantly reduce | concentration at 12 h (in vivo [5]; 1 mg/kg): 1800 nM | concentration at 72 h (in vivo [5]; 1 mg/kg): 230 nM | concentration at 1 h (in vivo [5]; 1 mg/kg/day): 5000 to 6000 nM | concentration at 72 h (in vivo [5]; 1 mg/kg/day): 2170 nM
